Assay [1] in a line: Luminescence Cell-Based Dose Retest to Confirm Inhibitors of Cancer Stem Cells. [Related pubchem assays (depositor defined):AID2717, AID2721]. The following applies: Homo sapiens. It is filed as functional.
Assay [2] addresses T1, Heat shock factor protein 1 (Mus musculus, UniProt P38532).
T1 sequence (P38532 whole entry): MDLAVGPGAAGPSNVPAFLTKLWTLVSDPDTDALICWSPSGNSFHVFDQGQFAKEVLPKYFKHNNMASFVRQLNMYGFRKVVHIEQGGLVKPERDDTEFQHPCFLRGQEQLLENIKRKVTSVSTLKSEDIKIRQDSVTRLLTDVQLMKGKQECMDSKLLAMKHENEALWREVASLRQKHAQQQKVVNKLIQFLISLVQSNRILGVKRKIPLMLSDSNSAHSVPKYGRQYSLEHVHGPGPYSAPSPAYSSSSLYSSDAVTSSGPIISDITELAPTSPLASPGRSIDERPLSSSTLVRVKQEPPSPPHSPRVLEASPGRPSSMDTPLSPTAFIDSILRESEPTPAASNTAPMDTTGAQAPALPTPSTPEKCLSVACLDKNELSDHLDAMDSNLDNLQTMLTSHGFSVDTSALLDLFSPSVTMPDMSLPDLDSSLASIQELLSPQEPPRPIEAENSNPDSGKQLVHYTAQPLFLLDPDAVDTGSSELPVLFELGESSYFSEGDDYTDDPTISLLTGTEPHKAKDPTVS
The experiment in a line: HSF1 potentiators in luciferase reporter cells, confirmation, cell-based, NIH3T3, luminescence, dose retest (AID 435004).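 Note: stress induced by proteasome inhibitor MG132 added 30 min after compound; luciferase reporter driven by HSF1 response element in NIH3T3 cells; actives raise luminescence as potentiators of the MG132 stress response.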 It is filed as functional. Background: Reporter assays use an easily measured gene product as a stand-in for the process of interest.

For the next assay, the system named is Vero. Briefly: cells. The following applies: Chlorocebus sabaeus. It is filed as functional.
Assay [3] deals with Hepatocyte nuclear factor 4-alpha (Homo sapiens, UniProt P41235). It is filed as functional, cell-based.
Assay [4] concerns the target T2, Sentrin-specific protease 8 (Homo sapiens, UniProt Q96LD8).
T2 sequence (Q96LD8 whole entry): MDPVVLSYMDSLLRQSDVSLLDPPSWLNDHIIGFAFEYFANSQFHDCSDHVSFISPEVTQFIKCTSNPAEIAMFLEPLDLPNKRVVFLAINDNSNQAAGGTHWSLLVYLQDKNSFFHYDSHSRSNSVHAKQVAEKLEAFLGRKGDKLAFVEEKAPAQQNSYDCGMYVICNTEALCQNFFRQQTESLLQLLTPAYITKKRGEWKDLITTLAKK
It is filed as functional.

The target of assay [5] is T2, Sentrin-specific protease 8. It is filed as functional. This is another data set of the same source.
Assay [6] addresses Peroxisome proliferator-activated receptor gamma/Nuclear receptor coactivator 1 (Homo sapiens, UniProt P37231). Briefly: TR-FRET dose response biochemical High Throughput Screening assay for agonists of the steroid receptor coactivator 1 (SRC-1) recruitment by the peroxisome proliferator-activated receptor gamma (PPAR gamma): non-selective agonists. [Related pubchem assays (depositor defined):AID1300, AID1808, AID504735, AID631]. It is filed as protein assay. In general terms: Time-resolved FRET reads energy transfer from a long-lived donor to a nearby acceptor.

Assay [7] concerns the target Peroxisome proliferator-activated receptor gamma/Nuclear receptor coactivator 3 (Homo sapiens, UniProt P37231). The experiment in a line: TR-FRET dose response biochemical High Throughput Screening assay for agonists of the steroid receptor coactivator 3 (SRC-3) recruitment by the peroxisome proliferator-activated receptor gamma (PPAR gamma): non-selective agonists. [Related pubchem assays: 1301 (Confirmation screen.), 1048 (Primary screen.)]. It is filed as functional.

The target of assay [8] is Luciferin 4-monooxygenase (Photinus pyralis, UniProt P08659). Briefly: firefly luciferase enzyme inhibitors, dose response, biochemical, luminescence (AID 1891).
Assay [9] in a line: Luminescence Cell-Based Dose Confirmation HTS to Identify Inhibitors of Platelet Dense Granule Release. [Related pubchem assays: 1663 (Primary HTS), 1678 (Summary of Project)]. It is filed as functional.
In assay [10] the target is Peroxisome proliferator-activated receptor gamma/Nuclear receptor coactivator 2 (Homo sapiens, UniProt P37231). Briefly: TR-FRET dose response biochemical High Throughput Screening assay for agonists of the steroid receptor coactivator 2 (SRC-2) recruitment by the peroxisome proliferator-activated receptor gamma (PPAR gamma): non-selective agonists. [Related pubchem assays: 1297, 1032 ]. It is filed as functional.

The target in a further assay is Beta-galactosidase (Escherichia coli, UniProt Q8VNN2). The experiment in a line: beta-galactosidase enzyme inhibitors and activators, dose response, artefact control for CCR6 antagonist project, biochemical, E. coli enzyme, set 3 (AID 504712). It is filed as functional.
The nature of assay [11]: Fluorescence-based cell-based high throughput dose response assay for inhibitors of the interaction of nucleotide-binding oligomerization domain containing 2 (NOD2) and the receptor-interacting serine-threonine kinase 2 (RIPK2). It is filed as functional. To be noted: Homo sapiens.
The next assay addresses Beta Lactamase (Pseudomonas aeruginosa, UniProt Q932Y6). The experiment in a line: beta-lactamase reporter inhibitor potency, dose response, artefact control for NOD2-RIPK2 interaction inhibitor project, BLA reporter cells, FRET fluorescence (AID 651552). It is filed as functional, cell-based.
Assay [12] addresses T3, RNA-binding protein pos-1 (Caenorhabditis elegans, UniProt G5EF15).
T3 sequence (G5EF15 whole entry): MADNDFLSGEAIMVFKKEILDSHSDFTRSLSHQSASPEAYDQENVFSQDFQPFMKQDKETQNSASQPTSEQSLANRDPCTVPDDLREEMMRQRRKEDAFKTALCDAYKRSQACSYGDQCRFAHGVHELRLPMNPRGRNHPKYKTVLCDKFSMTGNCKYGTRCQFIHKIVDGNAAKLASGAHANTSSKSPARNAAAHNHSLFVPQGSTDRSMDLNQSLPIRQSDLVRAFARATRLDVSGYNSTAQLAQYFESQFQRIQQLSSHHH
The experiment in a line: inhibitors of POS-1/mex-3 RNA binding, dose response, biochemical, fluorescence polarization (AID 1964).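 Note: purified POS-1 fused to maltose binding protein made in E. coli; potency of compounds blocking POS-1 binding to fluorescent RNA.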

The target of assay [13] is T4, Zinc finger protein mex-5 (Caenorhabditis elegans, UniProt Q9XUB2).
T4 sequence (Q9XUB2 whole entry): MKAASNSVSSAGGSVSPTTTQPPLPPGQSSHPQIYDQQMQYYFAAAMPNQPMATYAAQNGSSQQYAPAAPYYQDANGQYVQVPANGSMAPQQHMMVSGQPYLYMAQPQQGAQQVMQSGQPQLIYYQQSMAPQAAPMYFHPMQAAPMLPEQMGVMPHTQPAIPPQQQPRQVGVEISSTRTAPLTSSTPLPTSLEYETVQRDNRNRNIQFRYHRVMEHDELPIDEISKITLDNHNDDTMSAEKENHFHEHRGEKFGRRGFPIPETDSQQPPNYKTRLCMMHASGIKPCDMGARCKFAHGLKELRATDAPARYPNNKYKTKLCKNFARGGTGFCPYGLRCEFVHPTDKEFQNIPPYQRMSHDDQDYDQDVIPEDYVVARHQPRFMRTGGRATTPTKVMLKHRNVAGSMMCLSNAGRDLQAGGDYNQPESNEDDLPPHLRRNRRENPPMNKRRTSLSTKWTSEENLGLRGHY
Briefly: MEX-5/TCR-2 RNA interaction inhibitors, dose response, biochemical, C. elegans, fluorescence polarization (AID 1960). On the technique in general: Polarisation of emitted light reports the rotation of a fluorescent probe.

In assay [14] the target is T5, Sentrin-specific protease 1 (Homo sapiens, UniProt Q9P0U3).
T5 sequence (Q9P0U3 whole entry): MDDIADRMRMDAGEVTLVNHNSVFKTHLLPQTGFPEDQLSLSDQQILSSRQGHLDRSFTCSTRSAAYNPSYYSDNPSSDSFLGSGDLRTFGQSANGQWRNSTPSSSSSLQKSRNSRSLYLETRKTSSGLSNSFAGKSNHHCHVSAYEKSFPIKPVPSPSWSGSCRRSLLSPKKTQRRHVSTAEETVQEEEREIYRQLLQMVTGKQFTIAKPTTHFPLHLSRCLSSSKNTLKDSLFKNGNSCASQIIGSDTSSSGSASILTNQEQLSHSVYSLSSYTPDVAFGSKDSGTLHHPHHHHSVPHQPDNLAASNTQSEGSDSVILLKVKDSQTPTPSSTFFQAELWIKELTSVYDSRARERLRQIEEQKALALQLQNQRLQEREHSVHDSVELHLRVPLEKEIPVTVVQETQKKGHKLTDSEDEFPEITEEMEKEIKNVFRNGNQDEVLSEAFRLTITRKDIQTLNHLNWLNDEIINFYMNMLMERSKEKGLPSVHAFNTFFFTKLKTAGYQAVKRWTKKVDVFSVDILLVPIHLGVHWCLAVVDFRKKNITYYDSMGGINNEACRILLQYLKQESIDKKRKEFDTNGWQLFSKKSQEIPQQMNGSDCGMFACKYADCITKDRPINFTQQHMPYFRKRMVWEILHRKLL
The experiment in a line: potency of human SENP1 inhibitors, dose response, biochemical, kinetic FRET (AID 651697). It is filed as functional. To be noted: read-out: IC50_Mean.

Assay [15] addresses T5, Sentrin-specific protease 1. Briefly: Dose response confirmation of small molecule inhibitors of the catalytic domain of the SUMO protease, SENP1 in a FRET assay. It is filed as functional. To be noted: read-out: IC50_Mean.
The target of assay [16] is T6, Rac GTPase-activating protein 1 (Homo sapiens, UniProt Q9H0H5).
T6 sequence (Q9H0H5 whole entry): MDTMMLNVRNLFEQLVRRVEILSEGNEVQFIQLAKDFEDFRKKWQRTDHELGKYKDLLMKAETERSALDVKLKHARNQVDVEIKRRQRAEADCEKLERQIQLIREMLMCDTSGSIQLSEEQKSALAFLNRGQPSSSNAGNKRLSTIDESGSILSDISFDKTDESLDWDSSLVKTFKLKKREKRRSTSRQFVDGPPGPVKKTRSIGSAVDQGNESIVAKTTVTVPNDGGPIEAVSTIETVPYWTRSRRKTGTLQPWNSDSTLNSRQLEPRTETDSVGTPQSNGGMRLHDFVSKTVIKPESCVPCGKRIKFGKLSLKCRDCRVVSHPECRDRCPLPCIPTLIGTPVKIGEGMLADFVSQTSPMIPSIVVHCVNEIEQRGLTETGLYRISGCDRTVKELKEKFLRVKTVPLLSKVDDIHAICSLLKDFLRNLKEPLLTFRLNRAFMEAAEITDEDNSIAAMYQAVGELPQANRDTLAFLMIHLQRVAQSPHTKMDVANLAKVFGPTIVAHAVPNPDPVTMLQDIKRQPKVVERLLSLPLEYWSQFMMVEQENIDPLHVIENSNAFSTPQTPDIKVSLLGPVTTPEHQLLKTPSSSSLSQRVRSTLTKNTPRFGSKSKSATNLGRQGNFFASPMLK
Briefly: MgcRacGAP GTPase-activating activity inhibitors, confirmation, biochemical, ADP Hunter fluorescence, primary and confirmatory (AID 624330). It is filed as functional.

Assay [17] deals with T7, Acyl-homoserine lactone acylase PvdQ (Pseudomonas aeruginosa (strain LESB58), UniProt Q9I194).
T7 sequence (Q9I194 whole entry): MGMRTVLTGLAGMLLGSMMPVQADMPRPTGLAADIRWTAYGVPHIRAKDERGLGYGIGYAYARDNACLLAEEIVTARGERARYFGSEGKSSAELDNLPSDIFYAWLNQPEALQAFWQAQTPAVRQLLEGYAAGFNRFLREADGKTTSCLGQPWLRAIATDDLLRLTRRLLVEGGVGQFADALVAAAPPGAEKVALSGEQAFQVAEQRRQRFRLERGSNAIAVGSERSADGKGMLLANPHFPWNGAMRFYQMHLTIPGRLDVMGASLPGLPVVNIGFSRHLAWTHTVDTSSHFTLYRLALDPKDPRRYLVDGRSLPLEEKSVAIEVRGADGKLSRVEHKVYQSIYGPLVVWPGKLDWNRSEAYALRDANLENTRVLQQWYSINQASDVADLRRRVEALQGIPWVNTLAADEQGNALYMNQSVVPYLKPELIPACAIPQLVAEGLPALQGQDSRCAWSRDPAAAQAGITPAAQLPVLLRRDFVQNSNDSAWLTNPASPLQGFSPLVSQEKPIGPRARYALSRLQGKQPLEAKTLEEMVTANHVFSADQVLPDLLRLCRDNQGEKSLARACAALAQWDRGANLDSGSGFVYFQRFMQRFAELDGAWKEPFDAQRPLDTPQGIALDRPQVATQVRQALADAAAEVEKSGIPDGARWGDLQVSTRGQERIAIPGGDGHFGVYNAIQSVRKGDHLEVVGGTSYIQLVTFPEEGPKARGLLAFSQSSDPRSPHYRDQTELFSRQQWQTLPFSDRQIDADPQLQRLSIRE
The experiment in a line: P. aeruginosa PvdQ acylase inhibitors, dose response, biochemical, fluorescence, plate reader and imaging, cherry-picks (AID 493231).

Activity calls are given as the source filed them.

Sequence of Luciferin 4-monooxygenase (P08659 whole entry): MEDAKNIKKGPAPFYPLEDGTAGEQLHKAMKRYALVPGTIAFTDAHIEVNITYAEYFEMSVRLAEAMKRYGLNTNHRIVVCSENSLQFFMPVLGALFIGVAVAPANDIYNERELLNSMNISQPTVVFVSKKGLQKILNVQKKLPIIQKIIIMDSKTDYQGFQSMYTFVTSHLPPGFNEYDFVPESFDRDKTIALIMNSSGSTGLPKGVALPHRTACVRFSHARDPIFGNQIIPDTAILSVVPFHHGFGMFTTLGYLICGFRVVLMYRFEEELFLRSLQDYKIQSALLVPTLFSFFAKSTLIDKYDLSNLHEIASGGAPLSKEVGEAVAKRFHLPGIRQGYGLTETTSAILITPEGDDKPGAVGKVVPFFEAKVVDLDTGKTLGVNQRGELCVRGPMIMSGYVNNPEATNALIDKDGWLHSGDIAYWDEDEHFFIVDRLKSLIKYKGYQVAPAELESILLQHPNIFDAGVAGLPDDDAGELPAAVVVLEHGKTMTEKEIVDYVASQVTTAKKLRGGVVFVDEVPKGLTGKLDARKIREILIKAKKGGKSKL
Sequence of Peroxisome proliferator-activated receptor gamma/Nuclear receptor coactivator 2 (P37231 whole entry): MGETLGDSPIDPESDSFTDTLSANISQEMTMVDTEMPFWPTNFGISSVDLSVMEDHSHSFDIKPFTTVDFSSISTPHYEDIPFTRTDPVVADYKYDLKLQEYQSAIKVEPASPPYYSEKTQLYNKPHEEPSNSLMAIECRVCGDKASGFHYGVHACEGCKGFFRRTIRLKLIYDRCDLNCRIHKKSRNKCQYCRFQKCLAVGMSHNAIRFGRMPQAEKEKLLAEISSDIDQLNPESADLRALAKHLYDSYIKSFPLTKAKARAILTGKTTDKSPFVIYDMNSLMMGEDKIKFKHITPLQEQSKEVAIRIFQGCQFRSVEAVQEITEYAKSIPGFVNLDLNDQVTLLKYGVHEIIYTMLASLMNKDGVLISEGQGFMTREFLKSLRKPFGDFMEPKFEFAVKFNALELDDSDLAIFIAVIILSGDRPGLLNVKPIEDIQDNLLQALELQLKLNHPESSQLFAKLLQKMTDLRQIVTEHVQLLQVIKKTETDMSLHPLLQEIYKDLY
Sequence of Peroxisome proliferator-activated receptor gamma/Nuclear receptor coactivator 2 (Q15596 whole entry, further chain): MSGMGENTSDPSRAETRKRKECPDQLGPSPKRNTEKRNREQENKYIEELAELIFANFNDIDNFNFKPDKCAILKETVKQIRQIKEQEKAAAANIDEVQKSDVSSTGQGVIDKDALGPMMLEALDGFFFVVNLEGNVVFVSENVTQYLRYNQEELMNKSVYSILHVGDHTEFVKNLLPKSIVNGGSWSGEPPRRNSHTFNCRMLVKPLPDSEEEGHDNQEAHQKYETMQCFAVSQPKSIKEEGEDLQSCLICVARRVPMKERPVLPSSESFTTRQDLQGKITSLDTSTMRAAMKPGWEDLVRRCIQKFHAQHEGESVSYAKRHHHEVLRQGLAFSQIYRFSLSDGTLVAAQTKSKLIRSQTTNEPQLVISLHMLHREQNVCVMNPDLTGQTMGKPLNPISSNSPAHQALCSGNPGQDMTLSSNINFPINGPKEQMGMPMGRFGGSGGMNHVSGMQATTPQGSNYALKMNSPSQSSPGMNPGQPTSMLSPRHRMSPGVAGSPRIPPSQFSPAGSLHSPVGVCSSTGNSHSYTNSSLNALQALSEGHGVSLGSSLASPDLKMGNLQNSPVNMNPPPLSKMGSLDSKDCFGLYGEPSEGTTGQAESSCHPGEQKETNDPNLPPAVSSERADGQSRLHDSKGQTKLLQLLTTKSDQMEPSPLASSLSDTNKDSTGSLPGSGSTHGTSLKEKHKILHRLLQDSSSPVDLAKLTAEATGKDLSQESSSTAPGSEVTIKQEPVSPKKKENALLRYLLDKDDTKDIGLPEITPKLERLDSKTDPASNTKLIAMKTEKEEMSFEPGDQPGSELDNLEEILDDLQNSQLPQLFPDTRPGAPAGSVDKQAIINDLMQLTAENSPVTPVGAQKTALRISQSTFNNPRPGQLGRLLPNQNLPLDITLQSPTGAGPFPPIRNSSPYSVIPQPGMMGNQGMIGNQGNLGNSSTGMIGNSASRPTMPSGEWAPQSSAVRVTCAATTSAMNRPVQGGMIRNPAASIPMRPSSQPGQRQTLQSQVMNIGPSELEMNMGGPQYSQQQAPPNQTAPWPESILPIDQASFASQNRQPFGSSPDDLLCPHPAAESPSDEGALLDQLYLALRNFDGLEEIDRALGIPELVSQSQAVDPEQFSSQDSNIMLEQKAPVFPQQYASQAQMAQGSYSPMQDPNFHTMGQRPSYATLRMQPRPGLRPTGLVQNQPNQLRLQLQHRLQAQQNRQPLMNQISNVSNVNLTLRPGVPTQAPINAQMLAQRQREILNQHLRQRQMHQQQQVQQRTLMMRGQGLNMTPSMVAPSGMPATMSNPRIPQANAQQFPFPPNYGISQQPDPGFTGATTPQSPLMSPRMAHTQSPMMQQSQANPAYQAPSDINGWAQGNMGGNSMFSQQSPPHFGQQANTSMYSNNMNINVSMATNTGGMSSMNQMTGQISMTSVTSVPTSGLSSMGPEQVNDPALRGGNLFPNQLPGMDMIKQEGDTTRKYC
Sequence of Peroxisome proliferator-activated receptor gamma/Nuclear receptor coactivator 1 (P37231 whole entry): as the sequence (P37231 whole entry) above
Sequence of Peroxisome proliferator-activated receptor gamma/Nuclear receptor coactivator 1 (Q15788 whole entry, further chain): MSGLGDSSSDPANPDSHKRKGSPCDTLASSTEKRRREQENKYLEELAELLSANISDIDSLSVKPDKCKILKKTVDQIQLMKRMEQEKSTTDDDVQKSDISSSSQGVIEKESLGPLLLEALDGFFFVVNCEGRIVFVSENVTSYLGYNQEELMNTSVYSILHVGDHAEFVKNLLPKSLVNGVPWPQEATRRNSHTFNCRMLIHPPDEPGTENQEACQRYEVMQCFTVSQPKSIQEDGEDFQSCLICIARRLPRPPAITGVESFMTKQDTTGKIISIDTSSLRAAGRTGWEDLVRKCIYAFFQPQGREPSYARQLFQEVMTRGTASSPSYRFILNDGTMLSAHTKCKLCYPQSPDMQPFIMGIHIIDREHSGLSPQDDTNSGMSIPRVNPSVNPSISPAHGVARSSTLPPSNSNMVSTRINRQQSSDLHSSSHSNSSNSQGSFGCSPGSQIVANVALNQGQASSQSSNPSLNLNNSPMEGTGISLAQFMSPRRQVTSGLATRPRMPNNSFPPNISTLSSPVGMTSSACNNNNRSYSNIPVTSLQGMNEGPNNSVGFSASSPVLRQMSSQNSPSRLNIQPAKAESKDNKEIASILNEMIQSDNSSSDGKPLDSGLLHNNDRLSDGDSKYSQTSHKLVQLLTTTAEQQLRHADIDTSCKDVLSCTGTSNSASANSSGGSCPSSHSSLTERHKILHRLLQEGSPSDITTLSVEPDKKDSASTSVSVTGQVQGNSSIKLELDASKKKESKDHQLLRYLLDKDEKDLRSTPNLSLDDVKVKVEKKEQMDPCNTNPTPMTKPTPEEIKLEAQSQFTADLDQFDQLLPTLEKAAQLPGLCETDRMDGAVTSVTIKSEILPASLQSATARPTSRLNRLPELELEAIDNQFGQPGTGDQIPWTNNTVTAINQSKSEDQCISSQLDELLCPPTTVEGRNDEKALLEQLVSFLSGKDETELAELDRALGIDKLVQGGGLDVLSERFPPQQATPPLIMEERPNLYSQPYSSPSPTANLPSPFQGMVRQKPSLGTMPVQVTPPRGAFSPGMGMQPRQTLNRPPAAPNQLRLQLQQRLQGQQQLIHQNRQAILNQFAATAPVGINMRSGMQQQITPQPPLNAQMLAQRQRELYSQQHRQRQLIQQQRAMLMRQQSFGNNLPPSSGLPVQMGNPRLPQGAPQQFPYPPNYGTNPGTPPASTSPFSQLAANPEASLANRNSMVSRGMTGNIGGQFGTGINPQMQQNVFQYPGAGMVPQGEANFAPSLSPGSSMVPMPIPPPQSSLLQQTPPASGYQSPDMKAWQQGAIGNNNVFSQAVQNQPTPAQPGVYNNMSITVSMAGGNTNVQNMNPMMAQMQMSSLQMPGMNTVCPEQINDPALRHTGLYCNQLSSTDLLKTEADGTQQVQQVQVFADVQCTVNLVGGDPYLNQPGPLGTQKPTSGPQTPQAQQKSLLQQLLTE
Sequence of Hepatocyte nuclear factor 4-alpha (P41235 whole entry): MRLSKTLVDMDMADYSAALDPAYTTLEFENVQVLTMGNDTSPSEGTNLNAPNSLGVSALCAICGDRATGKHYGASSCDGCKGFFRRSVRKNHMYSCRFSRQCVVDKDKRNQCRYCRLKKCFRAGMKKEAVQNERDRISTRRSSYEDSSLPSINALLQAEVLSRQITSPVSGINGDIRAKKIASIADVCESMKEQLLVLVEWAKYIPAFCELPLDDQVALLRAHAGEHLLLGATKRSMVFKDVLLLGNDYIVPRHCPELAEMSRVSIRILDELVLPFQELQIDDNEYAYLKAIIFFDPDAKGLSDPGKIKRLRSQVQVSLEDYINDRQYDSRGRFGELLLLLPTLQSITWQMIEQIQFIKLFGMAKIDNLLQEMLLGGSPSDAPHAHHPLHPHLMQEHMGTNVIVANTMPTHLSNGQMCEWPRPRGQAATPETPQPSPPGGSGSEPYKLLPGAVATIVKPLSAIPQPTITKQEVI

One may read the AC50 as the midpoint of the concentration-response curve, whichever way the signal moves. The EC50 is the concentration giving half of the maximal effect. For orientation: CC50 means the concentration at which the toxic effect on the cells reaches its halfway point. On to `CCOC(=O)/C(=C\c1ccc(Cl)cc1)c1nc(O)c2c(C)c(C)sc2n1`, for which the AC50 in assay [1] is 0.981 µM (active). Further, in assay [2], the EC50 is > 260 µM (inconclusive). The CC50 with Vero was 16.5 µM (active). For the same compound, the IC50 in [3] was 1.56 µM (active).
Regarding `C[C@@H](OC(=O)c1nc[nH]c1C(=O)N1CCc2ccccc2C1)c1ccccc1`, the IC50 in [4] is 80.9 µM (inactive); in [5], 6.73 µM (active).
On to `Cc1ccccc1N1C(=O)CC(Sc2nnc(-c3ccccc3)o2)C1=O` (centres undefined), for which the EC50 in [6] was > 26.5 µM (inactive); in assay [7] it was > 79.4 µM (not active); in assay [8] it was > 112 µM (not active); in [9] it was > 112 µM (not active); in [10] it was 26.2 µM (not active); in assay [2] it was 57.4 µM (active). Besides, the figures for the IC50 (on Beta-galactosidase; in [11]; on Beta Lactamase) were > 66.6 µM (inactive), 4.12 µM (active) and 12.7 µM (inactive), respectively.
Consider `OC1=C2Sc3ccc(Cl)cc3N=C2CCC1`, for which the EC50 in assay [12] is 18.4 µM (active); in [13] it was 8.9 µM (inconclusive). Also, the values for the IC50 in assay [14], in assay [15] and in [16] were 13.7 µM (active), 17.1 µM (active) and 42 µM (active), respectively.
On to `O=C1/C(=C/c2ccc([N+](=O)[O-])cc2)Oc2cc(O)ccc21`, for which the AC50 in assay [17] is 53.7 µM (active). In assay [2], the EC50 is 175 µM (active). Besides, the IC50 is 38.4 µM (inactive) in assay [14] and 10.1 µM (active) in assay [15].
